In article PMC8695591 (RSC Advances, 2021):

Target: cathepsin B (Homo sapiens, UniProt P07858)
Assay: Cathepsin B inhibition assay
Assay type: biochemical

CC(=O)N[C@@H](CC(C)C)C(=O)N[C@@H](CC(C)C)C(=O)N[C@H](C=O)CCCNC(=N)N [Leupeptin]
IC50: 7.5 µM
